“Also recorded” adds a separate entry of the source. Marks after values point to notes of the source that are not given here.
Tests used:
[1] = test system: rat monocrotaline model of pulmonary arterial hypertension; test: rat monocrotaline model of pulmonary arterial hypertension, RV pressures; format: in vivo; settings: for RVEDP Mean / RVS Mean Difference (I − J) vs group 1 (saline control) / RVS Mean Difference (I − J) vs group 2 (monocrotaline, vehicle): day 21
Procedure: To test the efficacy of JAK2 inhibition as a treatment for PAH, the rat monocrotaline model of pulmonary arterial hypertension was used. Animals with pulmonary arterial hypertension induced by monocrotaline were treated for three weeks with the selective JAK2 inhibitor, AG490, or vehicle. AG490 is a tyrphostin based tyrosine kinase inhibitor selective for JAK2.

[2] = test system: plexiform lesions in lungs of monocrotaline treated rats; test: histological studies (H&E) of lungs, rat monocrotaline model; format: in vivo; settings: AG490 1 mg/kg tid, H&E stains of formalin fixed lungs
Procedure: A. Normal lung; B. Lung from monocrotaline treated animal. C. Lung from rat given monocrotaline and AG490 1 mg/kg tid. The arrows point to pulmonary arterioles.
Histological studies of the lungs from group 2 and group 5 were performed to determine the effect of selective JAK2 inhibition on the pulmonary vascular lesions associated with PAH.

[3] = test system: rat monocrotaline model of PAH; settings: cited from earlier work; for efficacy in the rat monocrotaline model of PAH: sildenafil oral, alone or in combination with beraprost
[4] = group 3, AG490 1 mg/kg/day SID IP
[5] = group 4, AG490 3 mg/kg/day SID IP
[6] = group 5, AG490 1 mg/kg/dose TID IP

With N#C/C(=C\c1ccc(O)c(O)c1)C(=O)NCc1ccccc1 [AG490] as the compound, how does the “reduction of RV systolic pressure vs vehicle treated group” value ([1]; AG490 1 mg/kg tid, day 21, p=0.023) read?
Its value is 24%.

And the RV systolic pressure ([1]; AG490 1 mg/kg tid, monocrotaline treated rats, day 21 (group 5), vehicle 38.44±3.1)?
The RV systolic pressure was 29.23±4.5 mm Hg.

What about the “RV systolic pressure improvement, in words” value ([1]; group 3, AG490 1 mg/kg/day) of the same compound?
The value was “No improvement”.

And the “RVEDP Mean Difference (I − J) vs group 1 (saline control)” value [1, 4]?
The value was 5.5436.

What about the “RVEDP Mean Difference (I − J) vs group 2 (monocrotaline, vehicle)” value [1, 4] of the same compound?
Its value is “−.0585”.

And the “RVEDP Mean” value [1, 4]?
Its value is 4.042 mm Hg.

And the “RVS Mean Difference (I − J) vs group 1 (saline control)” value (shortened to “RVS Mean Difference … (saline control)”) [1, 4]?
Its value is 11.468*.

And the “RVS Mean Difference (I − J) vs group 2 (monocrotaline, vehicle)” value [1, 4]?
Its value is −2.487.

What about the “RVEDP Mean Difference (I − J) vs group 1 (saline control)” value [1, 5] of the same compound?
Its value is “.6433”.

And the “RVEDP Mean Difference (I − J) vs group 2 (monocrotaline, vehicle)” value [1, 5]?
The value was −4.9588.

What about the “RVEDP Mean” value [1, 5] of the same compound?
Its value is “−.858 mm Hg”.

What about the “RVS Mean Difference … (saline control)” value [1, 5] of the same compound?
Its value is 6.730.

What about the “RVS Mean Difference (I − J) vs group 2 (monocrotaline, vehicle)” value [1, 5] of the same compound?
Its value is −7.225.

What about the “RV systolic pressure compared to group 2 (vehicle only), in words” value ([1]; group 5, AG490 1 mg/kg tid, p=0.023, 1 mg/kg) of the same compound?
Its value is “significantly reduced; also recorded: significant reduction; also recorded: significantly lower”.

And the “RV End diastolic pressure compared to group 2 (vehicle), in words” value ([1]; group 5, AG490 1 mg/kg tid, p=0.05)?
Its value is “significantly lower”.

And the “RVEDP Mean Difference (I − J) vs group 1 (saline control)” value [1, 6]?
Its value is “−.0193”.

And the “RVEDP Mean Difference (I − J) vs group 2 (monocrotaline, vehicle)” value [1, 6]?
The value was −5.6214*.

And the “RVEDP Mean” value [1, 6]?
The value was −1.521 mm Hg.

What about the “RVS Mean Difference … (saline control)” value [1, 6] of the same compound?
The value was 4.741.

And the “RVS Mean Difference (I − J) vs group 2 (monocrotaline, vehicle)” value [1, 6]?
Its value is −9.214*.

What about the “plexiform lesions associated with pulmonary arterial hypertension” value [2] of the same compound?
Its value is “prevented the formation of plexiform lesions; also recorded: decreased”.

Which pulmonary artery thickening ([3]; rat monocrotaline model) does the source give for COc1ccccc1Oc1c(NS(=O)(=O)c2ccc(C(C)(C)C)cc2)nc(-c2ncccn2)nc1OCCO [bosentan] here?
Its pulmonary artery thickening is “decrease pulmonary artery thickening”.

And the pulmonary hypertension ([3]; rat monocrotaline model)?
The pulmonary hypertension was “reduce pulmonary hypertension”.

For Cc1ccc(NC(=O)c2ccc(CN3CCN(C)CC3)cc2)cc1Nc1nccc(-c2cccnc2)n1 [imantinib], which RV systolic pressure ([3]; rat monocrotaline model) is on record?
Its RV systolic pressure is “decreased”.

And the survival ([3]; rat monocrotaline model)?
The survival was “improved survival”.

For CC#CCC(C)[C@H](O)/C=C/[C@@H]1[C@H]2C/C(=C/CCCC(=O)O)C[C@H]2C[C@H]1O (stereo partly shown) [iloprost], which “efficacy in the rat monocrotaline model of PAH” value [3] is on record?
The value was “showed efficacy”.

Which “progression of PAH” value ([3]; rat monocrotaline model) does the source give for O=C(C(=O)N1CCn2nc(-c3ccc(F)cc3)c(-c3ccncc3)c2N1)c1ccccc1.O=S(=O)(O)O [FR167653] here?
Its value is “decrease the progression of PAH”.

For O=S(=O)(c1cccc2cnccc12)N1CCCNCC1 [fasudil], which “progression of PAH” value ([3]; rat monocrotaline model) is on record?
The value was “prevented the progression of PAH”.

And the “pulmonary arterial hypertension, pulmonary vascular lesions, endothelial cell dysfunction, and RV hypertrophy” value ([3]; rat monocrotaline model)?
The value was “decreased”.

And the survival ([3]; rat monocrotaline model)?
Its survival is “improved survival”.

For CCCc1nn(C)c2c(=O)[nH]c(-c3cc(S(=O)(=O)N4CCN(C)CC4)ccc3OCC)nc12 [sildenafil], which “efficacy in the rat monocrotaline model of PAH” value [3] is on record?
Its value is “showed efficacy”.

— patent publication US8410173B2, “Inhibition of JAK2 as a treatment of pulmonary arterial hypertension” (YM Biosciences Australia Pty Ltd, priority 2006, dated 2013)
